This note sets out measurements from US20220112217A1, “PYRAZOLOPYRIMIDINE DERIVATIVE AND USE THEREOF AS PI3K INHIBITOR” (MEDSHINE DISCOVERY INC., priority 2018, published 2022).

The nature of data set [1]: In vivo DMPK study, single dose in female Balb/c mice. The settings on record: for half-life: female, Balb/c, 1 mg/kg, note lists it as an intravenous parameter, read-out: T1/2 (half-life) (converted); for half-life / Cmax: mouse, plasma; for half-life / Oral DNAUC (dose-normalized area under curve): mice; for Cmax: oral 3 mg/kg, female Balb/c mice. As to the method:
Objective: To evaluate the plasma concentration of the compounds and pharmacokinetics after a single dose in female Balb/c mice.
Procedures: 8 healthy adult female Balb/c mice were randomized, 4 for intravenous administration and 4 for oral administration. The compounds were mixed with a proper amount of vehicle for intravenous injection (DMSO/PEG200/water (5:45:50 v/v/v)). The mixture was vortexed and treated with ultrasound to give a 1.0 mg/mL clear solution. The clear solution was filtered through a microporous membrane filter for later use. For the oral group, the vehicle was 0.5% MC/0.2% Tween 80. The compound was mixed with the vehicle, and the mixture was vortexed and ultrasonically treated to give 1.0 mg/mL uniform suspension for later use. The mice were administered intravenously at 1 mg/kg or orally at 3 mg/kg. Whole blood was collected at certain time points, and plasma was separated. The drug concentration was measured by LC-MS/MS, and pharmacokinetic parameters were calculated using
Phoenix WinNonlin software (Pharsight, USA).

The target of the next data set is PI3K delta (Homo sapiens, UniProt O00329). Nature of the data set: In vitro enzyme activity assay (ADP-Glo lipid kinase), PI3K delta.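 Also: kinase reaction run at 23 °C, then leftover ATP depleted and the ADP formed turned back into ATP, with the luciferin/luciferase signal read as kinase activity.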 The settings on record: PI3Kδ IC50, ATP 40 μM, PIP2:3PS 50 μM, 120 min.
Chain of PI3K delta (O00329 whole entry): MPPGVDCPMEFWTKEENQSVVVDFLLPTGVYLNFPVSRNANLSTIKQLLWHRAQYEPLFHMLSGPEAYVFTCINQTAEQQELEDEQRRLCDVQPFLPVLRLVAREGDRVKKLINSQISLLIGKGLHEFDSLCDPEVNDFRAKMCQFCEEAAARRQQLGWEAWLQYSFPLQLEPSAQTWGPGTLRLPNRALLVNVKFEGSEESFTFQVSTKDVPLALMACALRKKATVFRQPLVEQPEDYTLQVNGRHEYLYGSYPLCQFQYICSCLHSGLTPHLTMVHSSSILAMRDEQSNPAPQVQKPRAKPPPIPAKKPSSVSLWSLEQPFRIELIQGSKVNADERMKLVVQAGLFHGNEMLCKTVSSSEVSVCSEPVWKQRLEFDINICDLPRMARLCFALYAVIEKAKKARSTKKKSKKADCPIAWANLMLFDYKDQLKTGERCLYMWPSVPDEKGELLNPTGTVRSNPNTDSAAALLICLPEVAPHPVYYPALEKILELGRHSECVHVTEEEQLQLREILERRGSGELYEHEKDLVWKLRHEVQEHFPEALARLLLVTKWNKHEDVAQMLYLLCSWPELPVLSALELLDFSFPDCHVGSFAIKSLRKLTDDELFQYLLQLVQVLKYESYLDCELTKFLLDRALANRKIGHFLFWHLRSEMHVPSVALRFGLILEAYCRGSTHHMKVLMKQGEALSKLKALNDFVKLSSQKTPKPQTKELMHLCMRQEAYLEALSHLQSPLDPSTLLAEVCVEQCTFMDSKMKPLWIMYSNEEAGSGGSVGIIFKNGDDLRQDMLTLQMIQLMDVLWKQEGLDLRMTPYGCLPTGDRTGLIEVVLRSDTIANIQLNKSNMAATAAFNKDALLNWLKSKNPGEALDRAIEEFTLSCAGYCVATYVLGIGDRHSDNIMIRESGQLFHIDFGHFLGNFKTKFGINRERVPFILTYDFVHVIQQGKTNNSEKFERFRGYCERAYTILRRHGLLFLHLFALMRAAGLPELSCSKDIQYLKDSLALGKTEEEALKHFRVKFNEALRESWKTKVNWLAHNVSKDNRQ
Chain of PI3K delta (P27986 whole entry partner): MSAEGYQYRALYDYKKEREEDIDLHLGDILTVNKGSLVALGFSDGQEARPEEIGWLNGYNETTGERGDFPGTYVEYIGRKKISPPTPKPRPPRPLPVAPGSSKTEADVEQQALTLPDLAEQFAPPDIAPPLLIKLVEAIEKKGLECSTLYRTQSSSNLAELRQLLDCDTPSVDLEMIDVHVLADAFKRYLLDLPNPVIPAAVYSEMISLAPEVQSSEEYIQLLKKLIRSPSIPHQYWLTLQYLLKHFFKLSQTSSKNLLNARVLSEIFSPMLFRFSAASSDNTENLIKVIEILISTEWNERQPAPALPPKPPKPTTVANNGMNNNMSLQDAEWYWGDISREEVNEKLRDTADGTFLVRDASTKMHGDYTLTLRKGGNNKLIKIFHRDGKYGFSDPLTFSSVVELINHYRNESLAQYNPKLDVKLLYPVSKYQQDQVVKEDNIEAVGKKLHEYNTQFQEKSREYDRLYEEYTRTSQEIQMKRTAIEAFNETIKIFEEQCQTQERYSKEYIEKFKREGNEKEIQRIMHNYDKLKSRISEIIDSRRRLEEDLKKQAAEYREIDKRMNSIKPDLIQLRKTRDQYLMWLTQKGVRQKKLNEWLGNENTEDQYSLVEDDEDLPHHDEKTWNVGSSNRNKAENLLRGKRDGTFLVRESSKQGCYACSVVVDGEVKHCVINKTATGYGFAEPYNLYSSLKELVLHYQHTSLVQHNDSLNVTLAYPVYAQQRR
In another data set the target is PI3K gamma (Homo sapiens, UniProt P48736). In words: In vitro enzyme activity assay (ADP-Glo lipid kinase), PI3K gamma. The settings on record: PI3Kγ IC50, ATP 25 μM, PIP2:3PS 50 μM, 120 min.
Chain of PI3K gamma (P48736 whole entry): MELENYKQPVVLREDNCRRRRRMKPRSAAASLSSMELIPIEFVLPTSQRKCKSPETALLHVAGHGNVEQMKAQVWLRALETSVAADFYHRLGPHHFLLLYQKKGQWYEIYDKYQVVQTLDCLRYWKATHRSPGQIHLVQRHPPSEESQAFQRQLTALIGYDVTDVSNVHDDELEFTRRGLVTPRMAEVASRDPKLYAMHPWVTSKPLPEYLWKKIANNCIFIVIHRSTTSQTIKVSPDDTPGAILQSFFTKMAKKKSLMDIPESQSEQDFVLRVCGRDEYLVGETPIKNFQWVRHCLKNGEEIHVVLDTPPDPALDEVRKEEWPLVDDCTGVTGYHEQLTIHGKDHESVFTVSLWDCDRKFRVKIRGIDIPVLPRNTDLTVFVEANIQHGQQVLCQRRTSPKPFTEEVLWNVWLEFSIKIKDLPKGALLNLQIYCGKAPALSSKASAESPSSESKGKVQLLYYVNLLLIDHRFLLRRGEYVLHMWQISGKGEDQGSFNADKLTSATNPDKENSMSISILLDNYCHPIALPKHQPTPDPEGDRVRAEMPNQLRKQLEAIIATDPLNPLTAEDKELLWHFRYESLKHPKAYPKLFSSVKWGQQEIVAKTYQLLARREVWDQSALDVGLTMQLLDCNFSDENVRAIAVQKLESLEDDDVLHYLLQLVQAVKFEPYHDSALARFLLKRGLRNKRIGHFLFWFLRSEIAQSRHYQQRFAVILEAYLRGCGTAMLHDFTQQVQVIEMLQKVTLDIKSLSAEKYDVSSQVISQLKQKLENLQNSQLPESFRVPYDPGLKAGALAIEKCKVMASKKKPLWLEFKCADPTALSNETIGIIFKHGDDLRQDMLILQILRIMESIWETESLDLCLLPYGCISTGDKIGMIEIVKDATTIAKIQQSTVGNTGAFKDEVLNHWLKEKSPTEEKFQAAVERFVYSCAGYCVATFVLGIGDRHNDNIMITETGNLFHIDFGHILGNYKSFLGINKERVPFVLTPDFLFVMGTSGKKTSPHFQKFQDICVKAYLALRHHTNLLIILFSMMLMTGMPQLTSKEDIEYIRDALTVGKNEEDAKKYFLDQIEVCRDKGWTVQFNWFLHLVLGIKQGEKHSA
The target of another data set is PI3K beta (Homo sapiens, UniProt P42338). In words: In vitro enzyme activity assay (ADP-Glo lipid kinase), PI3K beta.
Chain of PI3K beta (P42338 whole entry): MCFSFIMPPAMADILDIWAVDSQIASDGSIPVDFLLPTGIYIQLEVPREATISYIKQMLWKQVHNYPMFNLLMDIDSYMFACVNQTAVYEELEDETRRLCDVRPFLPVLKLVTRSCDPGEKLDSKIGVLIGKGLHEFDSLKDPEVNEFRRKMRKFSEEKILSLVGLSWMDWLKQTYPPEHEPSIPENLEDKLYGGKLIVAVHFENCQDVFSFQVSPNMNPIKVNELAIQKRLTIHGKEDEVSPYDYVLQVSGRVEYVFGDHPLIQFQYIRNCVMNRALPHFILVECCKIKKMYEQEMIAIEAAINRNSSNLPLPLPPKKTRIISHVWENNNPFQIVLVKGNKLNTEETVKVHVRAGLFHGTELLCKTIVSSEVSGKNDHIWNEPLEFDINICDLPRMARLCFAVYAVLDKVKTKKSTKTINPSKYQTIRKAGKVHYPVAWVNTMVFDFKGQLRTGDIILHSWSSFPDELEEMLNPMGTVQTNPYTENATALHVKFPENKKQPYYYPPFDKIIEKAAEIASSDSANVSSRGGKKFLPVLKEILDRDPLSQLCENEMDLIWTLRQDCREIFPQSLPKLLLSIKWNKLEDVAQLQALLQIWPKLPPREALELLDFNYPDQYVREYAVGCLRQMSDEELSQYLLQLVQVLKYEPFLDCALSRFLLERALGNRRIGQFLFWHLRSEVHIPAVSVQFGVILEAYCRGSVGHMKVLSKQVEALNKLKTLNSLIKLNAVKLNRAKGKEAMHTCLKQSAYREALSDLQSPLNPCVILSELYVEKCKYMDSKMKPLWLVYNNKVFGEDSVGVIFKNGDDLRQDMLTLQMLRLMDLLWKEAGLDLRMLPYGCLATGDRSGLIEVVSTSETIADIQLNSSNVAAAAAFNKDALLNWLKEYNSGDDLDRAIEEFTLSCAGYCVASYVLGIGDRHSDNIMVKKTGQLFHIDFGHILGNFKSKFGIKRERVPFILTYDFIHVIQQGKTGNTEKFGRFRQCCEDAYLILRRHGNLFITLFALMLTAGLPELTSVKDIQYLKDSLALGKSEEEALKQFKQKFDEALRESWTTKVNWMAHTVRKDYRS
Chain of PI3K beta (P27986 whole entry partner): as the sequence (P27986 whole entry partner) above
A further data set has as its target PI3K alpha (Homo sapiens, UniProt P42336). Nature of the data set: In vitro enzyme activity assay (ADP-Glo lipid kinase), PI3K alpha. (In ADP-Glo the light output rises with the ADP produced.)
A further data set relates to TMD-8 cell. In words: TMD-8 cell viability test (CellTiter-Glo, 72 h). The format is cell-based. The settings on record: Homo sapiens, TMD8. Here is the method:
7) After incubation, readings at 620 and 665 nm on EnVingen were recorded. • <2> TMD-8 cell viability test • 1) Cell Culture
Cells were regularly passaged. Cells at logarithmic growth phase were transferred to the plate. • 2) Plating • (1). Cells were stained with trypan blue and viable cells were counted. • (2). Cell concentration was adjusted to 7000 cells/well • (3). 90 μL of cell suspension was added to each well of the plate and cell-free medium was added to blank control wells. • (4). The plate was incubated overnight at 37° C., 5% CO2 and 100% relative humidity in an incubator. • 3) Preparation of Plate Containing Compound Stock
(1). Preparation of plate containing 400× compound stock: Compounds were diluted from the highest concentration gradient to lowest concentration with DMSO. • 4) Preparation of 10× compound working solution and treatment • (1). Preparation of 10× compound working solution: 78 μL of cell culture medium was added to a V-bottom 96-well plate, and 2 μL of compound stock solution was pipetted from the plate containing 400× compound stock into the cell cultures of 96-well plate. 2 μL of DMSO was added to the vehicle control wells and blank control wells. After compounds or DMSO was added, the mixture was well mixed by a pipette. • (2). 10 μL of DMSO-cell culture medium mixture solution was added to the vehicle control wells and blank control wells. The final concentration of DMSO was 0.25%. • (3). The 96-well cell plate was incubated in the incubator for another 72 h. • 5) CellTiter-Glo Luminescent Cell Viability Assay
The following procedure was performed according to the instructions of Promega CellTiter-Glo luminescent cell viability assay kit (Promega-G7573). • (1). CellTiter-Glo buffer was thawed and let stand at room temperature. • (2). The CellTiter-Glo substrate was let stand at room temperature. • (3). The CellTiter-Glo buffer was added to a flask of CellTiter-Glo substrate to dissolve the substrate, thereby preparing a CellTiter-Glo working solution. • (4). The solution was vortexed to completely dissolve the substrate. • (5). The plate was incubated at room temperature for 30 min for equilibration. • (6). 50 μL (equal to half the volume of cell culture medium in each well) of CellTiter-Glo working solution was added to each well. The plate was covered by aluminum foil to avoid light. • (7). The plate was shaken on an orbital shaker for 2 min to induce cell lysis. • (8). The plate was let stand at room temperature for 10 min to stabilize the luminescence signals. • (9). The luminescence signals were detected on 2104 EnVision plate reader.

Read-outs that look alike come from different tables or passages of the source.

Chain of PI3K alpha (P42336 whole entry): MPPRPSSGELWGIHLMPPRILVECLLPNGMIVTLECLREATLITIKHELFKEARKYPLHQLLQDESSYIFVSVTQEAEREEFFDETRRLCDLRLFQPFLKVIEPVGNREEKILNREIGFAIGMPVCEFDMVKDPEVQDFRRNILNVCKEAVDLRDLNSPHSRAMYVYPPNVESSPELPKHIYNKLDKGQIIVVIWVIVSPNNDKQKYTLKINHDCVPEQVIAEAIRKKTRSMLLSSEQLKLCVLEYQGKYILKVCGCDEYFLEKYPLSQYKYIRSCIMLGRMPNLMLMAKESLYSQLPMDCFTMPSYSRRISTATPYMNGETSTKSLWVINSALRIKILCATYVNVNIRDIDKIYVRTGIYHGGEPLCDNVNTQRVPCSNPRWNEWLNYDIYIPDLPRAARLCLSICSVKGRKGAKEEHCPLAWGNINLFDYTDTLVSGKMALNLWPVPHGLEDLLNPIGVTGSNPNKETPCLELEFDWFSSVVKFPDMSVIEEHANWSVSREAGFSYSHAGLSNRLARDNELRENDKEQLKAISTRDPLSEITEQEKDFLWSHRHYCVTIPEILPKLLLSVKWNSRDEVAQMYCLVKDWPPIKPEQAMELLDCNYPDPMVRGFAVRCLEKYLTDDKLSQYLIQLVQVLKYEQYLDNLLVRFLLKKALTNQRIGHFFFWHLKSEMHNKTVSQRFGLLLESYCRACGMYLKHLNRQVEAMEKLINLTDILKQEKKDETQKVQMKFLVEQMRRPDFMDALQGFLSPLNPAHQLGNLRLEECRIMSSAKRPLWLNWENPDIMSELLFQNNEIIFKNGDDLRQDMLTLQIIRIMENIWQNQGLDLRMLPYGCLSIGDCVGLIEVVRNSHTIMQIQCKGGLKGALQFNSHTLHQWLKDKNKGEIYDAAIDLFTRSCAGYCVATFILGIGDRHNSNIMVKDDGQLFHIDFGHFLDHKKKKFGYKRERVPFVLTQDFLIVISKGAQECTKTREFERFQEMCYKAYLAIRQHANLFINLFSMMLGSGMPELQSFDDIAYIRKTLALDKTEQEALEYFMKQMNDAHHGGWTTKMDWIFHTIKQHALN
Chain of PI3K alpha (P27986 whole entry partner): as the sequence (P27986 whole entry partner) above
Description for PI3K alpha: (§1) An appropriate substrate and ATP were incubated at a suitable condition for lipid kinase reaction, followed by a two-step detection of kinase activity using an ADP-Glo™ kit. Step I: The kinase reaction was terminated and residual ATP was completely removed, leaving ADP only; Step II: A kinase assay reagent was added to convert ADP to ATP by a luciferin/luciferase reaction. Finally, a fluorescence output value was detected and converted into kinase activity.
(§2) • 2) Kit: ADP-Glo™ lipid kinase and PIP2:3PS kit (Promega #V1792)
(§3) The mixture was incubated at 23° C. for 20 min • (10) 2 μL of ATP solution was added, and the mixture was centrifuged at 1000 rpm and was shaken to mix well • (11) The plate was covered, shaken for about 30 s, and incubated for 2 h at 23° C. • (12) 5 μL of ADP-Glo reagent containing 10 mM MgCl2 was added • (13) The mixture was centrifuged at 1000 rpm for 10 s, covered and shaken for about 30 s, and incubated at 23° C. for 60 min • (14) 10 μL of kinase assay reagent was added • (15) The mixture was centrifuged at 1000 rpm for 10 s, and incubated at 23° C. for 60 min • (16) Fluorescence values were measured by an Envision system. • 2. […] The mixture was incubated at 37° C./CO2 for 10 min. • 5) The compound was removed by pipette. Lysis buffer was added at 50 μL/well, and the cells wereincubated on a shaker for 30 min. • 6) After the cells were completely lysed, 16 μL of lysate was transferred to a 384-well plate and 4 μL of prepared AC+D2 in the kit was added. (AC: Eu3+-cryptate antibody binds to phosphorylated AKT, while D2 binds to non-phosphorylated AKT) The mixture was incubated at room temperature for 4 h.
Description for PI3K beta: as §1, §2, §3
Description for PI3K delta: as §1, §2
The kit comprises: 1 mM PIP2:3PS, 10× lipid dilution buffer, 1 M magnesium chloride, 10 mM ATP, 10 mM ADP, ADP-Glo reagent, detection buffer and substrate. • 3) Plate: OptiPlate-384, white and transparent (PerkinElmer #6007299) Reagent preparation: • 1) 10x reaction buffer: 500 mM HEPES (4-(2-hydroxyethyl)-1-piperazineethanesulfonic acid), pH 7.5, 500 mM NaCl, 9 mM MgCl2; BSA: 10% stock solution, prepared in-house • 2) Condition for final test system: 1× reaction system: 50 mM HEPES, 50 mM NaCl, 3 mM MgCl2, 0.01% BSA (prepared on the day of experiment), 1% DMSO (v/v) +/−compound • 3) Reaction system: 3 μL of enzyme and substrate mixture (1:1) +2 μL of ATP/MgCl2 mixture +5 μL of ADP-Glo reagent +10 μL detection reagent.
The specific experimental procedures are as follows: • 1) Dilution: 50 nL of 100× compound/DMSO solution were transferred into a test plate using Echo • For PI3Kα, the compound was serially diluted by three fold from the highest concentration 0.111 mM to the 10th concentration. • For PI3Kβ/PI3Kδ/PI3Kγ, the compound was serially diluted by three fold from the highest concentration of 1.11 mM to the 10th concentration. • 2) Kinase reaction: • (1) The target compounds were prepared. 50 nL of 100× compound solution or DMSO was added to the corresponding plate • (2) A 3.33 × reaction buffer was prepared • (3) A 3.33× PIP2:3PS solution were prepared; the PIP2:3PS solution should be thawed by vortex for at least 1 min before use • (4) An ATP solution containing 5.25 mM MgCl2 was prepared • (5) 3.33× PI3Kα/PI3Kβ/PI3Kδ/PI3Kγ solutions were prepared • (6) The lipid kinase solution and PIP2:3PS solution were mixed at a volume ratio of 1:1 • (7) The 3.33 × lipid kinase buffer and PIP2:3PS solution were mixed at a volume ratio of 1:1 • (8) 3 μL of the mixed solution of reaction buffer and PIP2:3PS was added to Columns 1 and 2 of the plate • (9) 3 μL of the mixed solution of the enzyme and PIP2:3PS was added to the wells of the plate other than Columns 1 and 2, and was centrifuged for 10 s (1000 rpm). The mixture was incubated at 23° C. for 20 min • (10) 2 μL of ATP solution was added, and the mixture was centrifuged at 1000 rpm and was shaken to mix well • (11) The plate was covered, shaken for about 30 s, and incubated for 2 h at 23° C. • (12) 5 μL of ADP-Glo reagent containing 10 mM MgCl2 was added • (13) The mixture was centrifuged at 1000 rpm for 10 s, covered and shaken for about 30 s, and incubated at 23° C. for 60 min • (14) 10 μL of kinase assay reagent was added • (15) The mixture was centrifuged at 1000 rpm for 10 s, and incubated at 23° C. for 60 min • (16) Fluorescence values were measured by an Envision system. • 2.
Description for PI3K gamma: as §1, §2, §3

Turning to `Cc1ncc(-c2nn(C(C)c3nc4ccc(F)cn4c(=O)c3-c3cccc(F)c3)c3ncnc(N)c23)s1` (stereo not drawn) [WX050], in data set [1], the half-life is 2.38 h; the Cmax – broadly, the highest concentration seen after dosing – is 1260 nM; the “Oral DNAUC (dose-normalized area under curve)” value is listed as 1513 nM · h/mpk. Moreover, the IC50 (as a rule, the concentration that gives 50% inhibition) against PI3K delta was 13.9 nM. This compound also had an IC50 at PI3K gamma of 582 nM.

In turn, `CC(c1nc2ccc(F)cn2c(=O)c1-c1cccc(F)c1)n1nc(-c2cnc3c(c2)OCCO3)c2c(N)ncnc21` (stereo not drawn) [WX056] came in with a Cmax in data set [1] of 4950 nM. In addition, the “Oral DNAUC (dose-normalized area under curve)” value in data set [1] was found to be 2037 nM · h/mpk. Further, the IC50 was over 10000 nM against PI3K beta, over 10000 nM against PI3K alpha, 188 nM at PI3K delta and 735 nM at PI3K gamma.

In the case of `CC(c1nc2ccc(F)cn2c(=O)c1-c1cccc(F)c1)n1nc(-c2cnc(N(C)C)s2)c2c(N)ncnc21` (stereo not drawn) [WX046], in data set [1], the half-life was 1.73 h, the peak level (Cmax) was 1560 nM and the “Oral DNAUC (dose-normalized area under curve)” value is recorded as 1648 nM · h/mpk. The IC50 against PI3K delta turned out to be 3.48 nM. The compound also registered an IC50 against PI3K gamma of 494 nM.

For the compound `Cc1nc(C)c(-c2nn(C(C)c3nc4ccc(F)cn4c(=O)c3-c3cccc(F)c3)c3ncnc(N)c23)s1` (stereo not drawn) [WX022], the IC50 on PI3K delta came out at 601 nM; against PI3K gamma, 9860 nM.

`CC(c1nc2ccc(F)cn2c(=O)c1-c1cccc(F)c1)n1nc(-c2cnc(OCC(F)(F)F)s2)c2c(N)ncnc21` (stereo not drawn) [WX028]: the figures for the IC50 on PI3K delta and on PI3K gamma were 330 nM and 2940 nM, respectively.

For the compound `CC(C)Oc1ncc(-c2nn(C(C)c3nc4ccc(F)cn4c(=O)c3-c3cccc(F)c3)c3ncnc(N)c23)cc1C#N` (single isomer, unassigned) [WX024], the IC50 came out at 313 nM on PI3K delta and 7170 nM on PI3K gamma.

`CC(c1nc2ccc(F)cn2c(=O)c1-c1cccc(F)c1)n1nc(-c2cnc(OC3CC3)s2)c2c(N)ncnc21` (stereo not drawn) [WX030]: the IC50 at PI3K delta stood at 45.6 nM; against PI3K gamma, 1190 nM.

Regarding `CC(c1nc2ccc(F)cn2c(=O)c1-c1cccc(F)c1)n1nc(-c2cnc(C(C)(C)C)s2)c2c(N)ncnc21` (stereo not drawn) [WX032], in data set [1], the half-life is 18.4 h, the Cmax amounted to 1500 nM and the “Oral DNAUC (dose-normalized area under curve)” value is listed as 2662 nM · h/mpk. At PI3K delta, this compound displayed an IC50 of 16.3 nM. At PI3K gamma, this compound registered an IC50 of 1740 nM.

`COc1ccc(-c2nn(C(C)c3nc4ccc(F)cn4c(=O)c3-c3cccc(F)c3)c3ncnc(N)c23)cn1` (single isomer, unassigned) [WX011]: the IC50 is 604 nM at PI3K delta and over 10000 nM on PI3K gamma.

As to `CC(c1nc2ccc(F)cn2c(=O)c1-c1cccc(F)c1)n1nc(-c2cnc(OC3CC(F)(F)C3)s2)c2c(N)ncnc21` (stereo not drawn) [WX020], the IC50 in the data set with TMD-8 cell is over 50000 nM; on PI3K delta, 491 nM; on PI3K gamma it was 275 nM.

Take `CC(C)Oc1ccc(-c2nn(C(C)c3nc4ccc(F)cn4c(=O)c3-c3cccc(F)c3)c3ncnc(N)c23)cn1` (single isomer, unassigned) [WX003]: the values for the IC50 against PI3K delta and against PI3K gamma were over 1000 nM and over 10000 nM, respectively.

Take `COc1ncc(-c2nn(C(C)c3nc4ccc(F)cn4c(=O)c3-c3cccc(F)c3)c3ncnc(N)c23)s1` (single isomer, unassigned) [WX008]: the IC50 was 783 nM against PI3K delta and over 10000 nM against PI3K gamma.

With `Cc1cccc2nc(C(C)n3nc(-c4ccc(OC(C)C)c(F)c4)c4c(N)ncnc43)c(-c3cccc(F)c3)c(=O)n12` (stereo not drawn) [WX040], the results for the IC50 at PI3K delta and at PI3K gamma were 271 nM and 455 nM, respectively.

Regarding `CC(c1nc2ccc(F)cn2c(=O)c1-c1cccc(F)c1)n1nc(-c2cnc(OCC(F)F)s2)c2c(N)ncnc21` (stereo not drawn) [WX016], half-maximal inhibition in the data set on TMD-8 cell (IC50) was put at 4110 nM. Also, in data set [1], the half-life was 3.85 h, the Cmax was 2180 nM and the “Oral DNAUC (dose-normalized area under curve)” value stood at 5599 nM · h/mpk. Further, on PI3K delta, the IC50 stood at 41.5 nM. Moreover, it took 260 nM to reach half-maximal inhibition against PI3K gamma (IC50).

Consider `CSc1ccc(-c2nn(C(C)c3nc4ccc(F)cn4c(=O)c3-c3cccc(F)c3)c3ncnc(N)c23)cn1` (stereo not drawn) [WX036], for which the IC50 against PI3K delta came out at 66.6 nM; against PI3K gamma it was 1210 nM.

For the compound `COCCOc1ncc(-c2nn(C(C)c3nc4ccc(F)cn4c(=O)c3-c3cccc(F)c3)c3ncnc(N)c23)s1` (stereo not drawn) [WX018], the IC50 in the data set on TMD-8 cell was 3420 nM; on PI3K delta, 122 nM; against PI3K gamma, 1550 nM. The half-life in data set [1] was 1.4 h. Further, the Cmax in data set [1] stood at 2240 nM. The “Oral DNAUC (dose-normalized area under curve)” value in data set [1] came to 1244 nM · h/mpk.

`CC(C)Oc1ccc(-c2nn(C(C)c3nc4ccc(F)cn4c(=O)c3-c3cccc(F)c3)c3ncnc(N)c23)cc1F` (single isomer, unassigned) [WX002]: the half-maximal inhibitory concentration (IC50) on PI3K beta (read-out: PI3Kβ IC50, ATP 40 μM, PIP2:3PS 50 μM, 120 min) is over 10000 nM; on PI3K alpha (read-out: PI3Kα IC50, ATP 40 μM, PIP2:3PS 50 μM, 120 min) it was over 10000 nM; at PI3K delta it was over 1000 nM; against PI3K gamma, over 10000 nM.

`COc1ncc(-c2nn(C(C)c3nc4ccc(F)cn4c(=O)c3-c3cccc(F)c3)c3ncnc(N)c23)cc1C#N` (single isomer, unassigned) [WX006]: the results for the IC50 on PI3K delta and against PI3K gamma were over 1000 nM and over 10000 nM, respectively.

In the case of `CC(C)Oc1ncc(-c2nn(C(C)c3nc4ccc(F)cn4c(=O)c3-c3cccc(F)c3)c3ncnc(N)c23)cc1C#N` (single isomer, unassigned) [WX025], the IC50 against PI3K delta was 461 nM; on PI3K gamma, 1130 nM.

As to `CNc1ncc(-c2nn(C(C)c3nc4ccc(F)cn4c(=O)c3-c3cccc(F)c3)c3ncnc(N)c23)s1` (stereo not drawn) [WX034], the values for the IC50 against PI3K delta and against PI3K gamma were 4 nM and 408 nM, respectively.

With `CC(C)Oc1ncc(-c2nn(C(C)c3nc4ccc(F)cn4c(=O)c3-c3cccc(F)c3)c3ncnc(N)c23)s1` (stereo not drawn) [WX048], the IC50 was determined as 72.5 nM on PI3K delta and 2030 nM against PI3K gamma.

For the compound `CC(C)Oc1ccc(-c2nn(C(C)c3nc4c(Cl)cc(F)cn4c(=O)c3-c3cccc(F)c3)c3ncnc(N)c23)cc1F` (stereo not drawn) [WX014], the IC50 against PI3K delta is 229 nM; at PI3K gamma, 620 nM.

For `CC(C)Oc1ccc(-c2nn(C(C)c3nc4c(F)cccn4c(=O)c3-c3cccc(F)c3)c3ncnc(N)c23)cc1F` (single isomer, unassigned) [WX013], the IC50 at PI3K delta was determined as 297 nM; against PI3K gamma it was 573 nM.

With `COc1ccc(-c2nn(C(C)c3nc4ccc(F)cn4c(=O)c3-c3cccc(F)c3)c3ncnc(N)c23)cc1F` (stereo not drawn) [WX009], the IC50 is over 1000 nM on PI3K delta and over 10000 nM against PI3K gamma.
